Patent publication EP4678638A1, “NEW E3 UBIQUITIN LIGASE LIGAND, PROTEIN DEGRADATION AGENT AND USE THEREOF” (priority 2023, dated 2024)

Experiments:
[1] = system: MM.1S; assay: CCK-8 proliferation, MM.1S; format: cell-based; details: Homo sapiens, MM1.S; CCK-8; 72 hours; read-out: Inhibitory activity (IC50) on tumor cell proliferation, MM1S
Outline: (§1)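 Tumor cells were cultured at 37°C with 5% CO2, seeded, and after 24h treated with compounds at 10 concentrations starting at 10µM (5-fold serial dilutions).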

[2] = system: MV-4-11; assay: CCK-8 proliferation, MV-4-11; format: cell-based, Human; details: Homo sapiens, MV4-11; CCK-8; 72 or 96 hours; read-out: Inhibitory activity (IC50) on tumor cell proliferation, MV-4-11
Outline: as §1

[3] = system: CCRF-CEM; assay: CCK-8 proliferation, CCRF-CEM; format: cell-based, Human; details: Homo sapiens, CCRF-CEM; CCK-8; 96 hours; read-out: Inhibitory activity (IC50) on tumor cell proliferation, CCRF-CEM
Outline: as §1

[4] = target: T1, CDK6 (Homo sapiens, UniProt Q00534); assay: Western blot degradation of CDK6 (MDA-MB-231 Cell); format: cell-based; details: Table D3
T1 construct: evaluate the effects of the compounds of the present disclosure on the expression of target proteins in cells; endogenous in cells; host or cells: MDA-MB-231
T1 sequence (Q00534 whole entry): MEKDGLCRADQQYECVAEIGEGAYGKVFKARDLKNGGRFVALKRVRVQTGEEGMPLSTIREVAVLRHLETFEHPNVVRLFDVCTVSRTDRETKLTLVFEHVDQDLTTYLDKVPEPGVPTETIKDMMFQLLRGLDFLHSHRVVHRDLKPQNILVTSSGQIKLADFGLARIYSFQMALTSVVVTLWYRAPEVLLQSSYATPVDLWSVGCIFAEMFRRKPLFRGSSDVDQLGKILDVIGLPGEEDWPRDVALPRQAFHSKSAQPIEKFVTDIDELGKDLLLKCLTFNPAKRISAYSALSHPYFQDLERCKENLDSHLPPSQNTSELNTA
Outline: (§2)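 After compound exposure, cells were harvested and lysates run on SDS-PAGE, transferred to nitrocellulose and probed with antibodies. Remaining target (%) was computed from band grayscale relative to an internal control protein and normalised; degradation (%) was 100% minus that.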

[5] = system: MCF7; assay: CCK-8 proliferation, MCF7 (MCF-7); format: cell-based; details: Homo sapiens, MCF7; CCK-8; read-out: Inhibitory activity (IC50) on tumor cell proliferation, MCF7
Outline: as §1

[6] = system: H1975; assay: CCK-8 proliferation, NCI-H1975 (H1975); format: cell-based, Human; details: Homo sapiens, NCI-H1975; CCK-8; 96 hours; read-out: Inhibitory activity (IC50) on tumor cell proliferation, H1975
Outline: as §1

[7] = system: Kasumi-1; assay: CCK-8 proliferation, Kasumi-1; format: cell-based, Human; details: Homo sapiens, Kasumi 1, 72 hours, read-out: Inhibitory activity (IC50) on tumor cell proliferation, Kasumi-1
Outline: as §1

[8] = system: SR; assay: CCK-8 proliferation, SR; format: cell-based, Human; details: Homo sapiens, SR; CCK-8; 72 hours; read-out: Inhibitory activity (IC50) on tumor cell proliferation, SR
Outline: as §1

[9] = system: 22RV1; assay: CCK-8 proliferation, 22RV1; format: cell-based; details: Homo sapiens, 96 hours, read-out: Inhibitory activity (IC50) on tumor cell proliferation, 22RV1
Procedure: The tumor cells used herein were cultured in a cell culture medium listed in table A1 at 37°C in an incubator with 5% CO2. Prior to experimentation, all cell lines used were correctly identified by STR profiling, and tested negative for mycoplasma contamination using a mycoplasma detection kit through routine screenings. Table A1. Tumor cells and cell culture medium used in the present disclosure
IC50 values of the compounds of the present disclosure (including the compounds in Table 1, and compounds of examples) were measured using the Meilun Cell Counting Kit-8 kit from Dalian Meilun Biotech Co., Ltd. Assay details are as follows: tumor cells were seeded in a 96-well plate at a density listed in Table A2. After 24h, 100 µL of the inoculated cells were treated with 0.5µL of the compounds of the present disclosure (including the compounds in Tables 1 and 2, and compounds of examples) at 10 different successively decreasing concentrations (starting at the highest concentration of 10µM; 5-fold serial dilutions). After the cells were treated with the compounds of the present disclosure for a period of time, the cell viability detection reagent was added to the culture medium for cell viability assessment according to the instructions provided with the CCK-8 kit. […] The growth inhibition of the compounds of the present disclosure on cells was plotted by Prism Graphpad software, and the IC50 values of the compounds of the present disclosure were calculated therefrom. […] Seeding protocol and treatment time for tumor cells

[10] = target: T2, CDK4 (Homo sapiens, UniProt P11802); assay: Western blot degradation of CDK4 (MDA-MB-231 Cell); format: cell-based; details: Table D3
T2 construct: evaluate the effects of the compounds of the present disclosure on the expression of target proteins in cells; endogenous in cells; host or cells: MDA-MB-231
T2 sequence (P11802 whole entry): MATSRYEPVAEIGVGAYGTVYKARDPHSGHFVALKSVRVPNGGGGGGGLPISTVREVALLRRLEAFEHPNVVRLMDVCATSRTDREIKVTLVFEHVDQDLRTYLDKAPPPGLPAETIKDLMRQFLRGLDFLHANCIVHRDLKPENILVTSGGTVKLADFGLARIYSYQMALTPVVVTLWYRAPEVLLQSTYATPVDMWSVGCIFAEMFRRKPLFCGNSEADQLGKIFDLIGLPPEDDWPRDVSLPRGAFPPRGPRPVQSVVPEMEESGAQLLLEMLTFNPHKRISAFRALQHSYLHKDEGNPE
Outline: as §2

SMILES | IC50 [1] | IC50 [2] | IC50 [3] | IC50 [5] | IC50 [6] | IC50 [9] | Degradation of substrate protein CDK6 (substrate protein remaining %) [4] | IC50 [7] | IC50 [8] | Degradation of substrate protein CDK4 (substrate protein remaining %) [10]
Cc1nc2c(F)cc(-c3nc(Nc4ccc(N5CCC(N(C)Cc6cccc(N7CCC(=O)NC7=O)c6)CC5)cn4)ncc3F)cc2n1C(C)C [GT-06839, 1-(3-(((1-(6-((5-fluoro-4-(4-fluoro-1-isopropyl-2-methyl-1H-benzo[d]imidazol-6-yl)pyrimidin-2-yl)amino)pyridin-3-yl)piperidin-4-yl)(methyl)amino)methyl)phenyl)dihydropyrimidine-2,4(1H,3H)-dione] | 100 to 500 nM | 10 to 50 nM | 100 to 500 nM | 50 to 100 nM | 100 to 500 nM | 10 to 50 nM | A (A is defined as 0% ≤ substrate protein remaining % ≤ 80%) | 10 to 50 nM | 50 to 100 nM | A (A is defined as 0% ≤ substrate protein remaining % ≤ 80%)
Cc1nc2c(F)cc(-c3nc(Nc4ccc(N5CCC(N(C)Cc6ccc(N7CCC(=O)NC7=O)cc6)CC5)cn4)ncc3F)cc2n1C(C)C [GT-06838, 1-(4-(((1-(6-((5-fluoro-4-(4-fluoro-1-isopropyl-2-methyl-1H-benzo[d]imidazol-6-yl)pyrimidin-2-yl)amino)pyridin-3-yl)piperidin-4-yl)(methyl)amino)methyl)phenyl)dihydropyrimidine-2,4(1H,3H)-dione] | 100 to 500 nM | 10 to 50 nM | 100 to 500 nM | 50 to 100 nM | 100 to 500 nM | 10 to 50 nM | B (B is defined as substrate protein remaining % > 80%) | 50 to 100 nM | 10 to 50 nM | A (A is defined as 0% ≤ substrate protein remaining % ≤ 80%)
Cc1nc2c(F)cc(-c3nc(Nc4ccc(N5CCC(N(C)Cc6ccc(N7CCC(=O)NC7=O)cn6)CC5)cn4)ncc3F)cc2n1C(C)C [GT-06840, 1-(6-(((1-(6-((5-fluoro-4-(4-fluoro-1-isopropyl-2-methyl-1H-benzo[d]imidazol-6-yl)pyrimidin-2-yl)amino)pyridin-3-yl)piperidin-4-yl)(methyl)amino)methyl)pyridin-3-yl)dihydropyrimidine-2,4(1H,3H)-dione] | 100 to 500 nM | 50 to 100 nM | 100 to 500 nM | 1 to 10 nM | 100 to 500 nM | 50 to 100 nM | B (B is defined as substrate protein remaining % > 80%) | 100 to 500 nM | 50 to 100 nM | A (A is defined as 0% ≤ substrate protein remaining % ≤ 80%)
Cc1nc2c(F)cc(-c3nc(Nc4ccc(CN5CCN(Cc6cccc(N7CCC(=O)NC7=O)c6)CC5)cn4)ncc3F)cc2n1C(C)C [GT-06666, 1-(3-((4-((6-((5-fluoro-4-(4-fluoro-1-isopropyl-2-methyl-1H-benzo[d]imidazol-6-yl)pyrimidin-2-yl)amino)pyridin-3-yl)methyl)piperazin-1-yl)methyl)phenyl)dihydropyrimidine-2,4(1H,3H)-dione] | 500 to 1000 nM | 10 to 50 nM | 100 to 500 nM | 100 to 500 nM | 500 to 1000 nM | 50 to 100 nM | A (A is defined as 0% ≤ substrate protein remaining % ≤ 80%) | 100 to 500 nM | 100 to 500 nM | A (A is defined as 0% ≤ substrate protein remaining % ≤ 80%)
Cc1nc2c(F)cc(-c3nc(Nc4ccc(N5CCC(N(C)Cc6ccc(N7CCC(=O)NC7=O)nc6)CC5)cn4)ncc3F)cc2n1C(C)C [GT-06841, 1-(5-(((1-(6-((5-fluoro-4-(4-fluoro-1-isopropyl-2-methyl-1H-benzo[d]imidazol-6-yl)pyrimidin-2-yl)amino)pyridin-3-yl)piperidin-4-yl)(methyl)amino)methyl)pyridin-2-yl)dihydropyrimidine-2,4(1H,3H)-dione] | 100 to 500 nM | 10 to 50 nM | 100 to 500 nM | 50 to 100 nM | 100 to 500 nM | 10 to 50 nM | A (A is defined as 0% ≤ substrate protein remaining % ≤ 80%) | 50 to 100 nM | 10 to 50 nM | A (A is defined as 0% ≤ substrate protein remaining % ≤ 80%)
Cc1nc2c(F)cc(-c3nc(Nc4ccc(N5CCC(N6CCN(Cc7cccc(NC8CCC(=O)NC8=O)c7)CC6)CC5)cn4)ncc3F)cc2n1C(C)C (stereo not drawn) [GT-06743, 3-((3-((4-(1-(6-((5-fluoro-4-(4-fluoro-1-isopropyl-2-methyl-1H-benzo[d]imidazol-6-yl)pyrimidin-2-yl)amino)pyridin-3-yl)piperidin-4-yl)piperazin-1-yl)methyl)phenyl)amino)pip eridine-2,6-dione] | 100 to 500 nM | 50 to 100 nM | 100 to 500 nM | 100 to 500 nM | 100 to 500 nM | 10 to 50 nM | B (B is defined as substrate protein remaining % > 80%) | 100 to 500 nM | 50 to 100 nM | A (A is defined as 0% ≤ substrate protein remaining % ≤ 80%)

Second part, led by results:

IC50 [1] | IC50 [2] | IC50 [3] | IC50 [5] | IC50 [6] | IC50 [9] | SMILES | Degradation of substrate protein CDK6 (substrate protein remaining %) [4] | IC50 [7] | IC50 [8] | Degradation of substrate protein CDK4 (substrate protein remaining %) [10]
100 to 500 nM | 10 to 50 nM | 50 to 100 nM | 50 to 100 nM | 100 to 500 nM | 10 to 50 nM | Cc1nc2c(F)cc(-c3nc(Nc4ccc(N5CCC(N6CCN(Cc7ccc(N8CCC(=O)NC8=O)cn7)CC6)CC5)cn4)ncc3F)cc2n1C(C)C [GT-06741, 1-(6-((4-(1-(6-((5-fluoro-4-(4-fluoro-1-isopropyl-2-methyl-1H-benzo[d]imidazol-6-yl)pyrimidin-2-yl)amino)pyridin-3-yl)piperidin-4-yl)piperazin-1-yl)methyl)pyridin-3-yl)dihydropyrimidine-2,4(1H,3H)-dione] | B (B is defined as substrate protein remaining % > 80%) | 100 to 500 nM | 10 to 50 nM | A (A is defined as 0% ≤ substrate protein remaining % ≤ 80%)
100 to 500 nM | 10 to 50 nM | 100 to 500 nM | 50 to 100 nM | 100 to 500 nM | 10 to 50 nM | Cc1nc2c(F)cc(-c3nc(Nc4ccc(N5CCC(N6CCN(Cc7ccc(N8CCC(=O)NC8=O)cc7)CC6)CC5)cn4)ncc3F)cc2n1C(C)C [GT-06739, 1-(4-((4-(1-(6-((5-fluoro-4-(4-fluoro-1-isopropyl-2-methyl-1H-benzo[d]imidazol-6-yl)pyrimidin-2-yl)amino)pyridin-3-yl)piperidin-4-yl)piperazin-1-yl)methyl)phenyl)dihydropyrimidine-2,4(1H,3H)-dione] | B (B is defined as substrate protein remaining % > 80%) | 50 to 100 nM | 50 to 100 nM | A (A is defined as 0% ≤ substrate protein remaining % ≤ 80%)
100 to 500 nM | 10 to 50 nM | 100 to 500 nM | 50 to 100 nM | 100 to 500 nM | 10 to 50 nM | Cc1nc2c(F)cc(-c3nc(Nc4ccc(N5CCC(N6CCN(Cc7cccc(N8CCC(=O)NC8=O)c7)CC6)CC5)cn4)ncc3F)cc2n1C(C)C [GT-06740, 1-(3-((4-(1-(6-((5-fluoro-4-(4-fluoro-1-isopropyl-2-methyl-1H-benzo[d]imidazol-6-yl)pyrimidin-2-yl)amino)pyridin-3-yl)piperidin-4-yl)piperazin-1-yl)methyl)phenyl)dihydropyrimidine-2,4(1H,3H)-dione] | B (B is defined as substrate protein remaining % > 80%) | 50 to 100 nM | 10 to 50 nM | A (A is defined as 0% ≤ substrate protein remaining % ≤ 80%)
